# Measurements from patent US8163753B2, “2,3-dihydro-6-nitroimidazo (2,1-b) oxazole compounds for the treatment of tuberculosis” (priority 2003, dated 2012).
# Tests used:
# [1] = tested on: Mycobacterium tuberculosis (H37Rv strain); details: in vitro, literature report; cited from earlier work
# [2] = tested on: M. avium; details: used at 250 μg/ml or less; cited from earlier work
# [3] = tested on: M. intracellulare; details: used at 250 μg/ml or less; cited from earlier work
# [4] = tested on: M. fortuitum; details: used at 250 μg/ml or less; cited from earlier work
# [5] = tested on: M. tuberculosis Kurono; assay: Antibacterial test, agar-plate dilution method (minimum inhibitory concentration), Test Example 2; type: cell-based; details: 7H11 agar medium, 37° C. for 14 days; for MIC: Mycobacterium tuberculosis, 336 h
SMILES,melting point [°C],other results
CCC1Cn2cc([N+](=O)[O-])nc2O1 (stereo not drawn) [CGI-17341],–,bactericidal action to Mycobacterium tuberculosis (H37Rv strain) [1]: has a bactericidal action; activity to M. avium [2]: does not have the activity; activity to M. intracellulare [3]: does not have the activity; activity to M. fortuitum [4]: does not have the activity
"C[C@]1(COc2ccc3nc(N4CCN(Cc5ccc(OC(F)(F)F)cc5)CC4)sc3c2)Cn2cc([N+](=O)[O-])nc2O1 [Example 1, (R)-2-methyl-6-nitro-2-(2-(4-(4-trifluoromethoxybenzyl)-piperazine-1-yl)benzothiazole-6-yloxymethyl)-2,3-dihydroimidazo[2,1-b]oxazole]",205.6 to 207.4,MIC [5]: 0.2 µg/mL
"C[C@]1(COc2ccc(N3CCN(CCOc4ccc(OC(F)(F)F)cc4)CC3)cc2)Cn2cc([N+](=O)[O-])nc2O1 [Example 9, (R)-2-methyl-6-nitro-2-(4-(4-(2-(4-trifluoromethoxyphenoxy)ethyl)piperazine-1-yl)phenoxymethyl)-2,3-dihydroimidazo[2,1-b]oxazole]",–,MIC [5]: 0.012 µg/mL
"C[C@]1(COc2ccc(N3CCC(CC=Cc4ccc(C(F)(F)F)cc4)CC3)cc2)Cn2cc([N+](=O)[O-])nc2O1 [Example 8, (R)-2-methyl-6-nitro-2-(4-(4-(3-(4-trifluoromethyphenyl)-2-propenyl)piperidine-1-yl)phenoxymethyl)-2,3-dihydroimidazo[2,1-b]oxazole]",–,Minimum Inhibitory Concentration [5]: 0.006 µg/mL
CC(C)(C)OC(=O)N1CCCN(c2ccc(-c3ccc(OC[C@H]4Cn5cc([N+](=O)[O-])nc5O4)cc3)cc2)CC1,235.5 to 237.5,–
C[C@]1(COc2ccc3nc(Cl)ccc3c2)Cn2cc([N+](=O)[O-])nc2O1,182.2 to 184.7,–
O=[N+]([O-])c1cn2c(n1)O[C@@H](COc1ccc(N3CCC(CCc4ccc(OC(F)(F)F)cc4)CC3)cc1)C2,208.9 to 211.7,–
CC1(COc2ccc3nc(N4CCN(Cc5ccc(OC(F)(F)F)cc5)CC4)sc3c2)Cn2cc([N+](=O)[O-])nc2O1 (stereo not drawn),172.6 to 174.6,–
CN(Cc1ccc(N(C)CC=Cc2ccc(C(F)(F)F)cc2)cc1)C[C@@]1(C)Cn2cc([N+](=O)[O-])nc2O1,153.5 to 154.5,–
CN(Cc1cc2cc(Cl)ccc2o1)C1CCN(c2ccc(OC[C@@]3(C)Cn4cc([N+](=O)[O-])nc4O3)cc2)CC1,207.4 to 210,–
CC1(COc2ccc(N3CCC(COc4ccc(Cl)cc4)CC3)cc2)Cn2cc([N+](=O)[O-])nc2O1 (stereo not drawn),190 to 190.4,–
